Consider four compounds from US5783700A, “Quinolic acid derivatives” (priority 1997, dated 1998).

In data set [1] the test system is NMDA receptor glycine binding. The conditions noted are these: cited from earlier work.
The test system of data set [2] is recognition site presumed to be located within the ion channel of the receptor complex. The note with it: cited from earlier work.
The subject of data set [3] is [^3 H]-MK 801 binding. The conditions noted are these: cited from earlier work.
The subject of data set [4] is MES induced seizures. Put plainly: Maximal electroshock (MES) anticonvulsant test, ip. It counts as in vivo, male Carworth Farms no. 1 mice. How it is done:
(§1) Biological Testing--Compounds were screened for anticonvulsant activity in male Carworth Farms no. 1 mice. The maximal electroshock (MES), subcutaneous Metrazol (pentylenetetrazole) (Met), and threshold tonic extension (TTE) tests were used to evaluate compounds for anticonvulsive activity. A rotorod protocol was used to determine neurotoxicity. Solutions for injection were prepared in 30% polyethylene glycol 400. Except for the TTE tests, animals were dosed ip at two different time periods: either 30 min. or 4 hr prior to testing. At each time period, three groups of four mice were tested at the following dose levels: 30, 100, and 300 mg/kg. This treatment protocol was followed for MES, Met, and rotorod testing.
Maximal electroshock (MES) induced seizures were elicited with a 60 cycle alternating current of 50 mA intensity (five to seven times the intensity necessary to evoke minimal electroshock threshold seizures). Current was delivered via corneal electrodes for 0.2 sec. A drop of 0.9% saline was instilled in the eye prior to application of the electrodes. Abolition of the hindlimb tonic extension component of the seizure was defined as protection.
In general terms: Protection in the maximal electroshock model is a classic sign of anticonvulsant action.

Data set [5] in a line: Rotorod test for drug induced neurological deficit (neurotoxicity), ip. The format is in vivo, male Carworth Farms no. 1 mice. The conditions noted are these: neurotoxicity, 30 min or 4 hr, 30, 100, 300 mg/kg, bracketed = maximum ineffective dose (given as >), unbracketed = effective (neurotoxic) dose (=). The protocol: as §1
Animals were tested for drug induced neurological deficit using a rotorod. Either 30 min. or 4 hr after treatment, the animal was placed on a 1-inch diameter knurled plastic rod rotating at 6 rpm. Neurological deficit was defined as the failure of the animal to remain on the rod for 1 min.
On the technique in general: The rotarod test checks motor coordination on a turning rod.

Data set [6] has as its target glycine binding site on the NMDA receptor. The note with it: [^3 H]-labeled ligand; cited from earlier work.

Consider `O=C(O)c1cc(O)c2ccc(Cl)cc2n1` [7-chlorokynurenic acid], for which the “inhibition of glycine binding” value in data set [1] is “competitive inhibitor of glycine binding”. Moreover, the “effect on binding of phencyclidine-like compounds” value in data set [2] was “decrease binding”. The “effect at 1 uM on [^3 H]-MK 801 binding” value in data set [3] (1 uM) was “little effect”. For the same compound, in data set [3] ([^3 H]-MK 801, depending on brain region, read-out: IC50 (inhibition concentration)), the IC50 is 30 to 40 µM.

Consider `CN(C)C(=O)Nc1cc(C(=O)O)nc2cc(Cl)cc(Cl)c12` [Compound 5], for which the “MES activity” value in data set [4] was “demonstrated activity”. Also, in data set [5], the “Rotorod: effective or [maximum ineffective] intraperitoneal dose” value is given as more than 300 mg/kg.

With `COc1cccc(N(C(=O)Nc2cc(C(=O)O)nc3cc(Cl)cc(Cl)c23)c2ccccc2)c1` [Compound 12], the “MES activity” value in data set [4] was “demonstrated activity”. For the same compound, the “Rotorod: effective or [maximum ineffective] intraperitoneal dose” value in data set [5] was more than 300 mg/kg.

Take `O=C(O)c1cc(O)c2c(Cl)cc(Cl)cc2n1` [[^3 H]-5,7-dichlorokynurenic acid]: the dissociation constant (Kd) (commonly the constant that tells how readily two partners part at equilibrium) in data set [6] was 0.029 µM.
